In ChEMBL document CHEMBL1201862, “PubChem BioAssay data set” (2004):
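Following 48 hours of exposure in 96-well plates, responses at five concentrations were used to interpolate endpoints linearly. Here, GI50 denotes the concentration required for 50% inhibition of growth.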 Activity calls are given as the source filed them. Rule as the data show it: active = GI50 up to about 1.1 µM and inactive = higher.

Legend:
Experiment in all cases: NCI anticancer screen, dose series, 48 h
[1] = system: 786-0
[2] = system: A498
[3] = system: A549
[4] = system: ACHN
[5] = system: CAKI-1
[6] = system: CCRF-CEM
[7] = system: COLO 205
[8] = system: DU-145
[9] = system: EKVX
[10] = system: HCC 2998
[11] = system: HCT-116
[12] = system: HCT-15
[13] = system: HL-60
[14] = system: HOP-62
[15] = system: HOP-92
[16] = system: HT-29
[17] = system: Hs-578T
[18] = system: IGROV-1
[19] = system: K562
[20] = system: KM12
[21] = system: LOX IMVI
[22] = system: M14
[23] = system: MCF7
[24] = system: MDA-MB-231
[25] = system: MDA-MB-435
[26] = system: MDA-N
[27] = system: MOLT-4
[28] = system: Malme-3M
[29] = system: NCI-H226
[30] = system: NCI-H23
[31] = system: NCI-H460
[32] = system: NCI-H522
[33] = system: NCI/ADR-RES
[34] = system: OVCAR-3
[35] = system: OVCAR-4
[36] = system: OVCAR-5
[37] = system: OVCAR-8
[38] = system: PC-3
[39] = system: RPMI-8226
[40] = system: RXF 393
[41] = system: SF-268
[42] = system: SF-295
[43] = system: SF-539
[44] = system: SK-MEL-28
[45] = system: SK-MEL-2
[46] = system: SK-MEL-5
[47] = system: SK-OV-3
[48] = system: SN12C
[49] = system: SNB-19
[50] = system: SNB-75
[51] = system: SR
[52] = system: SW-620
[53] = system: T47D
[54] = system: TK-10
[55] = system: U-251
[56] = system: UACC-257
[57] = system: UACC-62
[58] = system: UO-31
[59] = system: BT-549

Measured: GI50

CN1CN(c2ccccc2)C2(CCN(CCCC3(c4cccs4)OCCO3)CC2)C1=O
inactive: [1] > 100 µM | [2] > 100 µM | [3] > 100 µM | [4] > 100 µM | [5] > 100 µM | [6] > 100 µM | [7] > 100 µM | [8] > 100 µM | [9] > 100 µM | [10] > 100 µM | [11] > 100 µM | [13] > 100 µM | [14] > 100 µM | [15] 28.7 µM | [16] 36.1 µM | [17] > 100 µM | [18] > 100 µM | [19] > 100 µM | [20] > 100 µM | [21] > 100 µM | [22] 96.8 µM | [23] > 100 µM | [24] > 100 µM | [25] > 100 µM | [26] > 100 µM | [27] > 100 µM | [28] > 100 µM | [29] > 100 µM | [30] 77.6 µM | [31] > 100 µM | [32] > 100 µM | [33] > 100 µM | [34] > 100 µM | [35] > 100 µM | [36] > 100 µM | [37] > 100 µM | [38] > 100 µM | [39] > 100 µM | [40] > 100 µM | [41] > 100 µM | [42] > 100 µM | [43] > 100 µM | [44] > 100 µM | [45] > 100 µM | [46] 91 µM | [47] > 100 µM | [48] > 100 µM | [49] > 100 µM | [50] 88.7 µM | [51] > 100 µM | [52] > 100 µM | [53] > 100 µM | [54] > 100 µM | [55] > 100 µM | [56] > 100 µM | [57] > 100 µM | [58] > 100 µM
> 100 µM: [12]

CSC1(CC(=O)N2CCCCC2)C(=O)Nc2ccccc21 (stereo unspecified)
> 100 µM: [12]
inactive: [1] > 100 µM | [2] > 100 µM | [3] > 100 µM | [4] > 100 µM | [59] > 100 µM | [7] > 100 µM | [8] > 100 µM | [9] > 100 µM | [10] > 100 µM | [11] > 100 µM | [14] > 100 µM | [16] > 100 µM | [17] > 100 µM | [18] > 100 µM | [19] > 100 µM | [20] > 100 µM | [21] > 100 µM | [22] > 100 µM | [23] > 100 µM | [25] > 100 µM | [27] > 100 µM | [28] > 100 µM | [29] > 100 µM | [30] > 100 µM | [31] > 100 µM | [33] > 100 µM | [34] > 100 µM | [35] > 100 µM | [36] > 100 µM | [38] > 100 µM | [39] > 100 µM | [41] > 100 µM | [42] > 100 µM | [43] > 100 µM | [44] > 100 µM | [45] > 100 µM | [46] > 100 µM | [47] > 100 µM | [49] > 100 µM | [50] > 100 µM | [52] > 100 µM | [53] > 100 µM | [54] > 100 µM | [55] > 100 µM | [56] > 100 µM | [57] > 100 µM | [58] > 100 µM
